Measured values: patent US8999974B2, “Acyl piperazine derivatives as TTX-S blockers” (Raqualia Pharma Inc., priority 2010, dated 2015)

Assays:
human NaV1.3 = molecular target: T1, human NaV1.3 (Homo sapiens, UniProt Q9NY46); assay: FRET assay (EFS, FDSS) on HEK293 cells expressing human NaV1.3 channels; assay type: cell-based; settings: for IC50: FRET assay, HEK293 cells expressing human NaV1.3, read-out: IC50 against Nav1.3
T1 construct: expressed in transfected cells; host or cells: HEK293
Outline: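 Membrane potential in HEK293 cells stably expressing human NaV1.3, read by FRET (CC2-DMPE 10 µM / DiSBAC2(3) 15 µM with 0.555 mM VABSC-1) after electrical field stimulation, in HEPES-buffered saline pH 7.4. Compounds added after dye loading at room temperature. IC50 from normalized 440 nm fluorescence ratios.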

human Nav1.7 = molecular target: T2, human Nav1.7 (Homo sapiens, UniProt Q15858); assay: FRET assay (EFS, FDSS) on CHO cells expressing human NaV1.7 channels; assay type: cell-based; settings: for IC50: FRET assay, CHO cells expressing human NaV1.7, read-out: IC50 against Nav1.7
T2 construct: expressed in transfected cells; host or cells: CHO
Experimental: This screen was used to determine the effects of compounds on human NaV1.3, human Nav1.7, and human Nav1.5 channels, utilising electrical field stimulation (EFS) system in 96-well plate format on FDSS (Hamamatsu Photonics) platform. The change of membrane potential was monitored with FRET dye pair, oxonol (DiSBAC2(3)) and coumarin (CC2-DMPE).
CHO cells expressing human NaV1.7 channels were grown in T225 flasks, in a 5% CO2 humidified incubator to about 80% confluence. Media composition consisted of HAM/F12 with Glutamax I, 10% FCS, 100 units/ml Penicillin and 100 microgram/ml Hygromycin.
Protocol: • Seeded each cell lines (1×10^5 cells/well) into poly-D-lysine coated 96-well plates prior to experimentation. • Incubated at 37° C. in 5% CO2 for 24 hours. • Washed each well with assay buffer (140 mM NaCl, 4.5 mM KCl, 10 mM D-Glucose, 2 mM CaCl2, 1 mM MgCl2, 10 mM HEPES, pH 7.4 adjusted with NaOH) twice. • Added 1st loading solution containing 10 microM CC2-DMPE and 0.06% Pluronic F-127 in assay buffer. • Incubated the plate at room temperature in dark for 1 hour. • Removed 1st loading solution and added 2nd loading solution containing 15 microM DiSBAC2(3), 0.555 mM VABSC-1 and 0.004% Pluronic F-127 in assay buffer. • Placed the plate under the dark at room temperature for 25 minutes. • Added compound solutions into the assay plate. • Set the assay plate in FDSS and placed an EFS device on the plate. • Measured EFS-induced fluorescent response by FDSS.
The data were analyzed and reported as normalized ratios of intensities measured at […]. The process of calculating these ratios was performed as follows:
[formula] This analysis was performed using a computerized specific program designed for FDSS generated data. Fluorescence ratio values were plotted using XLfit to determine an IC50 value for each compound.

[1] = comparison compound of WO 2008147864

T1 sequence (Q9NY46 whole entry): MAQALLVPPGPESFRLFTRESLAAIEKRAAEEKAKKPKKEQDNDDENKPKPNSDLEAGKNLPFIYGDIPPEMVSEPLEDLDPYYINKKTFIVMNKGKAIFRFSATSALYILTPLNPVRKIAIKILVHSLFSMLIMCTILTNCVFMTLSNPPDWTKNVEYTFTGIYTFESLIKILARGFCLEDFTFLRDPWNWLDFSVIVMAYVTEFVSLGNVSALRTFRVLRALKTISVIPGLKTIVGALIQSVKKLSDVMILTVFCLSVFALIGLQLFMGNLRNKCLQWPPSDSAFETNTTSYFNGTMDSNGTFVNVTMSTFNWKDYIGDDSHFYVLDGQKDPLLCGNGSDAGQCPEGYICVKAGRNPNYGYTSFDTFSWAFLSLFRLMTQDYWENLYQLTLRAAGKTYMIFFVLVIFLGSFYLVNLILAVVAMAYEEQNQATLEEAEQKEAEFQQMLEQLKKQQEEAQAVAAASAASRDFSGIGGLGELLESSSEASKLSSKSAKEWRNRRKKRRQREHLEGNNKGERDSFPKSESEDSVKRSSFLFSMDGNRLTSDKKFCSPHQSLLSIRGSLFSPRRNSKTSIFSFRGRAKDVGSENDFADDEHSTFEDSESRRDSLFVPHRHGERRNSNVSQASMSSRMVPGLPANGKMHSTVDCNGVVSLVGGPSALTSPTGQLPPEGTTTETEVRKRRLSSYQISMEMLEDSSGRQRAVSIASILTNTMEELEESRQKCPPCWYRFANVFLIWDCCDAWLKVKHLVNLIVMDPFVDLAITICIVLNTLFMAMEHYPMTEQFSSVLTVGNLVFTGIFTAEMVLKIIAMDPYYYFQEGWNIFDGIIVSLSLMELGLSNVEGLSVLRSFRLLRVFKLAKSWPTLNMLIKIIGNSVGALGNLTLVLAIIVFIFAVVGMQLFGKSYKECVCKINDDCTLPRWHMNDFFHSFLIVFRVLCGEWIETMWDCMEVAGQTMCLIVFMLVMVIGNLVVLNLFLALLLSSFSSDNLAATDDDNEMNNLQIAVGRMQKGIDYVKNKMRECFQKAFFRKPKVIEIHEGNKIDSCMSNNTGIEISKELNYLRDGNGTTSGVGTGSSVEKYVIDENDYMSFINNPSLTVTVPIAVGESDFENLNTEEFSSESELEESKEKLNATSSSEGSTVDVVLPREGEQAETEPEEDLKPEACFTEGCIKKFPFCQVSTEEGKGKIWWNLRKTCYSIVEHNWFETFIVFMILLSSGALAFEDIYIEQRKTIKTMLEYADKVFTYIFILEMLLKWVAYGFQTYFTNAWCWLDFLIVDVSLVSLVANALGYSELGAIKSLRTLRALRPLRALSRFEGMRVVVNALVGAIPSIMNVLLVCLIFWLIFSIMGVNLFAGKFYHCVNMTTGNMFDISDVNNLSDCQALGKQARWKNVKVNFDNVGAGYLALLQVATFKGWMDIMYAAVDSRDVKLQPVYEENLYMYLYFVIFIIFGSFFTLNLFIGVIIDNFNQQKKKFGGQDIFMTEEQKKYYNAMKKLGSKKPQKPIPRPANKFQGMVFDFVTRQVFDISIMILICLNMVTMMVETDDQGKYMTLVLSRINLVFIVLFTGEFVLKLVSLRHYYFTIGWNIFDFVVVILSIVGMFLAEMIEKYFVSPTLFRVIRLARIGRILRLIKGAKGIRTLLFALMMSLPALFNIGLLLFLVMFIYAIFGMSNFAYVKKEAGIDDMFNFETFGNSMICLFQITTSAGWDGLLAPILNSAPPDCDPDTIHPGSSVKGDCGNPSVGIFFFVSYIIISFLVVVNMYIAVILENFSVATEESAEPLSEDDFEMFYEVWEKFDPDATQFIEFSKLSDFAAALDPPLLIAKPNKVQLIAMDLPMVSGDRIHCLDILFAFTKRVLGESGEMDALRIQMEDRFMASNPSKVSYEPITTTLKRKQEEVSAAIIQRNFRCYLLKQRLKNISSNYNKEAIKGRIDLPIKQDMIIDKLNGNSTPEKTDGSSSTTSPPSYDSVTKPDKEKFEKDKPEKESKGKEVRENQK
T2 sequence (Q15858 whole entry): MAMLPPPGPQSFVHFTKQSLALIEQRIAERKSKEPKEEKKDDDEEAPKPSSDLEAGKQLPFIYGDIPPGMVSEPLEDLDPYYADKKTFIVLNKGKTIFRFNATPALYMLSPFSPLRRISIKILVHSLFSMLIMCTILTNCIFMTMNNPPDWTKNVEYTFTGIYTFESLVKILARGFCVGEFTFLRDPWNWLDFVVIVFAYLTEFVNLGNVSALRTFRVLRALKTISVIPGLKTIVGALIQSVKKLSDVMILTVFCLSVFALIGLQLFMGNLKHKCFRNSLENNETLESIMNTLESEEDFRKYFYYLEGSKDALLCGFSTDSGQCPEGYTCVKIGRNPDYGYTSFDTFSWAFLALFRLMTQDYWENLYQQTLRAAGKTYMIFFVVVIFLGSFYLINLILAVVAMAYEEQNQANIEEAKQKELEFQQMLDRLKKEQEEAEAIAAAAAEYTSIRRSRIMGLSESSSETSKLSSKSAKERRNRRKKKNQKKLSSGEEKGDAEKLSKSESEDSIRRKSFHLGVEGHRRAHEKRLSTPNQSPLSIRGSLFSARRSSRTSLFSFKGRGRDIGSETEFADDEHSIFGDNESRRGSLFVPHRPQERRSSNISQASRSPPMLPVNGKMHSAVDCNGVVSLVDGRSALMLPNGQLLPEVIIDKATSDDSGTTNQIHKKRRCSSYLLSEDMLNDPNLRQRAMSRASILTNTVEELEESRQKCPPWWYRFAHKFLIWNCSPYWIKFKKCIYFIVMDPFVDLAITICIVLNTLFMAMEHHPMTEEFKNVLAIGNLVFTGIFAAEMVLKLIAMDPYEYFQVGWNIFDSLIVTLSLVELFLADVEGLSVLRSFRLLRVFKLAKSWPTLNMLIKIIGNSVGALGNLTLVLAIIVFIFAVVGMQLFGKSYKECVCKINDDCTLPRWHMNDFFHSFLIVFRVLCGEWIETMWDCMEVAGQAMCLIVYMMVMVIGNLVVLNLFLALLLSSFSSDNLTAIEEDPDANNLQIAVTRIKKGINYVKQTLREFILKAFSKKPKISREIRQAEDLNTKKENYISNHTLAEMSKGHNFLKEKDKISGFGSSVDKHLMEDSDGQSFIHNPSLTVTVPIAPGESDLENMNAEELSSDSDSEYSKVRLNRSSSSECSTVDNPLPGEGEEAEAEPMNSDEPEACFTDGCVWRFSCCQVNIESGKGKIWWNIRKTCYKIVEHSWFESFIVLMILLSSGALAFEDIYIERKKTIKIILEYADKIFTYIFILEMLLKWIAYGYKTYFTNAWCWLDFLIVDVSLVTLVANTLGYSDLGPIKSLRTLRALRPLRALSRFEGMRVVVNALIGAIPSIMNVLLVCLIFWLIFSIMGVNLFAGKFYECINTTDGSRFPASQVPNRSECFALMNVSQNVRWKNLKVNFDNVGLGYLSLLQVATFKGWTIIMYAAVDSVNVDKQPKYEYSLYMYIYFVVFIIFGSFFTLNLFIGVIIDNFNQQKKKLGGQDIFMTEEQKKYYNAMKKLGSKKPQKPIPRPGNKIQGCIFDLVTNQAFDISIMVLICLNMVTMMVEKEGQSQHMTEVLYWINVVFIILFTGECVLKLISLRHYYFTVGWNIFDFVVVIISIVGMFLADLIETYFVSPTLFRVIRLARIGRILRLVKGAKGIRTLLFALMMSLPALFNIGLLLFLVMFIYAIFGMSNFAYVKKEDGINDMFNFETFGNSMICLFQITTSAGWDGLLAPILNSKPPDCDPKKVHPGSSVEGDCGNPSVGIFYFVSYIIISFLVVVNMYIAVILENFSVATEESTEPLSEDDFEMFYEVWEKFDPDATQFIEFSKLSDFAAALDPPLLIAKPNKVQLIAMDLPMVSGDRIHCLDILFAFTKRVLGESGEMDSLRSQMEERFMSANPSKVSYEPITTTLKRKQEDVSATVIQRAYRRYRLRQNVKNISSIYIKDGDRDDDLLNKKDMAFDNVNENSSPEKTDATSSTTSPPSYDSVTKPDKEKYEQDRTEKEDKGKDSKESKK

activity against NaV1.3 (human NaV1.3; [1])	activity against NaV1.7 (human Nav1.7; [1])	SMILES	IC50 (human NaV1.3) [µM]	IC50 (human Nav1.7) [µM]
–	–	CC(C)COc1cc(N2CCN(C(=O)CNC(=O)c3ccc(OCC(F)(F)F)nc3)CC2)ncn1 [Example 74, N-(2-(4-(6-isobutoxypyrimidin-4-yl)piperazin-1-yl)-2-oxoethyl)-6-(2,2,2-trifluoroethoxy)nicotinamide]	< 3	< 3
–	–	CC(C)COc1cc(N2CCN(C(=O)COc3ccc(F)c4cccnc34)CC2)ncn1 [Example 129, 2-((5-fluoroquinolin-8-yl)oxy)-1-(4-(6-isobutoxypyrimidin-4-yl)piperazin-1-yl)ethanone]	< 3	< 3
–	–	Cn1nc(C(=O)N2CCN(c3cc(OCC(F)(F)F)ncn3)CC2)c2cc(F)ccc21 [Example 212, (5-fluoro-1-methyl-1H-indazol-3-yl)(4-(6-(2,2,2-trifluoroethoxy)pyrimidin-4-yl)piperazin-1-yl)methanone]	< 3	< 3
–	–	CC(C)COc1cc(N2CCN(C(=O)CCOc3ccccc3)CC2)ncn1 [Example 131, 1-(4-(6-isobutoxypyrimidin-4-yl)piperazin-1-yl)-3-phenoxypropan-1-one]	< 3	< 3
no activity	no activity	O=C(c1ccc2c(=O)n(CCc3ccccc3)c(=O)[nH]c2c1)N1CCN(c2ncccn2)CC1 [3-(2-phenylethyl)-7-[(4-pyrimidin-2-ylpiperazin-1-yl)carbonyl]quinazoline-2,4(1H,3H)-dione]	–	–
–	–	CC(C)COc1cc(N2CCN(C(=O)c3csc(-c4ccccc4)n3)CC2)ncn1 [Example 213, (4-(6-isobutoxypyrimidin-4-yl)piperazin-1-yl)(2-phenylthiazol-4-yl)methanone]	< 3	< 3
–	–	CC(C)COc1cc(N2CCN(C(=O)Cn3nc4ccccc4n3)CC2)ncn1 [Example 105, 2-(2H-benzo[d][1,2,3]triazol-2-yl)-1-(4-(6-isobutoxypyrimidin-4-yl)piperazin-1-yl)ethanone]	< 3	< 3
–	–	CC(C)COc1cc(N2CCN(C(=O)c3csc(Cc4ccccc4)n3)CC2)ncn1 [Example 167, (2-benzylthiazol-4-yl)(4-(6-isobutoxypyrimidin-4-yl)piperazin-1-yl)methanone]	< 3	< 3
